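Test compounds were applied to cells in 96-well plates for 48 hours at 5 doses. The concentration for 50% growth inhibition is given as GI50.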 Active and inactive are the calls of the source. Rule as the data show it: active = GI50 up to about 1.1 µM and inactive = higher.
Assays:
Assay in all cases: growth of human tumour cells (NCI), 48 h
[1] = tested on: SNB-19
[2] = tested on: HOP-62
[3] = tested on: SN12C
[4] = tested on: CAKI-1
[5] = tested on: 786-0
[6] = tested on: Hs-578T
[7] = tested on: MDA-MB-231
[8] = tested on: COLO 205
[9] = tested on: MDA-MB-435
[10] = tested on: HT-29
[11] = tested on: NCI-H23
[12] = tested on: KM12
[13] = tested on: HOP-92
[14] = tested on: HL-60
[15] = tested on: HCC 2998
[16] = tested on: M14
[17] = tested on: U-251
[18] = tested on: CCRF-CEM
[19] = tested on: DU-145
[20] = tested on: UACC-62
[21] = tested on: OVCAR-5
[22] = tested on: UO-31
[23] = tested on: MCF7
[24] = tested on: Malme-3M
[25] = tested on: SK-MEL-5
[26] = tested on: TK-10
[27] = tested on: LOX IMVI
[28] = tested on: SF-268
[29] = tested on: RPMI-8226
[30] = tested on: UACC-257
[31] = tested on: RXF 393
[32] = tested on: SR
[33] = tested on: OVCAR-4
[34] = tested on: OVCAR-8
[35] = tested on: MDA-N
[36] = tested on: SK-OV-3
[37] = tested on: MOLT-4
[38] = tested on: A549
[39] = tested on: SF-295
[40] = tested on: BT-549
[41] = tested on: NCI-H522
[42] = tested on: SF-539
[43] = tested on: SK-MEL-2
[44] = tested on: PC-3
[45] = tested on: NCI-H226
[46] = tested on: EKVX
[47] = tested on: SW-620
[48] = tested on: NCI/ADR-RES
[49] = tested on: ACHN
[50] = tested on: IGROV-1
[51] = tested on: NCI-H460
[52] = tested on: A498
[53] = tested on: SNB-75
[54] = tested on: T47D
[55] = tested on: K562
[56] = tested on: HCT-15
[57] = tested on: SK-MEL-28
[58] = tested on: OVCAR-3
[59] = tested on: HCT-116

## CC1(C)CC(=O)C2=C(C1)C(c1ccccc1Cl)C1C(=O)CC(C)(C)CC1(O)O2 (stereo not drawn)
[1]
  GI50: > 100000 nM (inactive)
[2]
  GI50: > 100000 nM (inactive)
[3]
  GI50: > 100000 nM (inactive)
[4]
  GI50: 98200 nM (inactive)
[5]
  GI50: > 100000 nM (inactive)
[6]
  GI50: > 72300 nM (inactive)
[7]
  GI50: > 100000 nM (inactive)
[8]
  GI50: > 31600 nM (inactive)
[9]
  GI50: 25900 nM (inactive)
[10]
  GI50: > 100000 nM (inactive)
[11]
  GI50: > 100000 nM (inactive)
[12]
  GI50: > 100000 nM (inactive)
[13]
  GI50: > 100000 nM (inactive)
[14]
  GI50: 4910 nM (inactive)
[15]
  GI50: > 100000 nM (inactive)
[16]
  GI50: 98200 nM (inactive)
[17]
  GI50: > 100000 nM (inactive)
[18]
  GI50: 26800 nM (inactive)
[19]
  GI50: > 100000 nM (inactive)
[20]
  GI50: > 64700 nM (inactive)
[21]
  GI50: > 100000 nM (inactive)
[22]
  GI50: > 100000 nM (inactive)
[23]
  GI50: 37300 nM (inactive)
[24]
  GI50: > 100000 nM (inactive)
[25]
  GI50: 64100 nM (inactive)
[26]
  GI50: > 100000 nM (inactive)
[27]
  GI50: > 68200 nM (inactive)
[28]
  GI50: > 100000 nM (inactive)
[29]
  GI50: > 84100 nM (inactive)
[30]
  GI50: > 49900 nM (inactive)
[31]
  GI50: > 100000 nM (inactive)
[32]
  GI50: 28100 nM (inactive)
[33]
  GI50: > 100000 nM (inactive)
[34]
  GI50: > 86700 nM (inactive)
[35]
  GI50: 19600 nM (inactive)
[36]
  GI50: > 100000 nM (inactive)
[37]
  GI50: 74500 nM (inactive)
[38]
  GI50: > 100000 nM (inactive)
[39]
  GI50: > 31600 nM (inactive)
[40]
  GI50: > 100000 nM (inactive)
[41]
  GI50: > 100000 nM (inactive)
[42]
  GI50: 69000 nM (inactive)
[43]
  GI50: > 100000 nM (inactive)
[44]
  GI50: > 100000 nM (inactive)
[45]
  GI50: > 100000 nM (inactive)
[46]
  GI50: > 100000 nM (inactive)
[47]
  GI50: 43700 nM (inactive)
[48]
  GI50: > 89100 nM (inactive)
[49]
  GI50: > 100000 nM (inactive)
[50]
  GI50: > 100000 nM (inactive)
[51]
  GI50: > 100000 nM (inactive)
[52]
  GI50: > 100000 nM (inactive)
[53]
  GI50: > 78300 nM (inactive)
[54]
  GI50: > 100000 nM (inactive)
[55]
  GI50: 15300 nM (inactive)
[56]
  GI50: 42500 nM
[57]
  GI50: > 100000 nM (inactive)
[58]
  GI50: > 100000 nM (inactive)
[59]
  GI50: 26900 nM (inactive)

## C[C@H]1CCC/C=C/[C@@H]2C[C@H](OC(=O)CN(C)C)C[C@H]2[C@H](O)/C=C/C(=O)O1
[1]
  GI50: 319 nM (active)
[2]
  GI50: 210 nM (active)
[3]
  GI50: 158 nM (active)
[4]
  GI50: 161 nM (active)
[5]
  GI50: 46.2 nM (active)
[6]
  GI50: 45.8 nM (active)
[7]
  GI50: 15.2 nM (active)
[8]
  GI50: 47.6 nM (active)
[9]
  GI50: 157 nM (active)
[10]
  GI50: 105 nM (active)
[11]
  GI50: 129 nM (active)
[12]
  GI50: 52.2 nM (active)
[13]
  GI50: 1030 nM (active)
[14]
  GI50: 220 nM (active)
[15]
  GI50: 61.2 nM (active)
[16]
  GI50: 77.8 nM (active)
[17]
  GI50: 254 nM (active)
[18]
  GI50: 284 nM (active)
[19]
  GI50: 401 nM (active)
[20]
  GI50: 108 nM (active)
[21]
  GI50: 102 nM (active)
[22]
  GI50: 58.1 nM (active)
[23]
  GI50: 187 nM (active)
[24]
  GI50: 73.8 nM (active)
[25]
  GI50: 39.5 nM (active)
[26]
  GI50: 100 nM (active)
[27]
  GI50: 86.1 nM (active)
[28]
  GI50: 200 nM (active)
[29]
  GI50: 303 nM (active)
[30]
  GI50: 109 nM (active)
[31]
  GI50: 38.3 nM (active)
[32]
  GI50: 153 nM (active)
[33]
  GI50: 154 nM (active)
[34]
  GI50: 97 nM (active)
[35]
  GI50: 135 nM (active)
[36]
  GI50: 58.6 nM (active)
[37]
  GI50: 187 nM (active)
[38]
  GI50: 286 nM (active)
[39]
  GI50: 165 nM (active)
[40]
  GI50: 232 nM (active)
[41]
  GI50: 425 nM (active)
[42]
  GI50: 148 nM (active)
[43]
  GI50: 153 nM (active)
[44]
  GI50: 141 nM (active)
[45]
  GI50: 28.8 nM (active)
[46]
  GI50: 188 nM (active)
[47]
  GI50: 156 nM (active)
[48]
  GI50: 13.9 nM (active)
[49]
  GI50: 200 nM (active)
[50]
  GI50: 570 nM (active)
[51]
  GI50: 365 nM (active)
[52]
  GI50: 83 nM (active)
[53]
  GI50: 155 nM (active)
[54]
  GI50: 329 nM (active)
[55]
  GI50: 241 nM (active)
[56]
  GI50: 188 nM
[57]
  GI50: 138 nM (active)
[58]
  GI50: 169 nM (active)
[59]
  GI50: 242 nM (active)

— ChEMBL document CHEMBL1201862, “PubChem BioAssay data set” (2004)
